Assay results published in ChEMBL document CHEMBL4619725, “Ultrasounds-mediated 10-seconds synthesis of chalcones as potential farnesyltransferase inhibitors” (Bioorg Med Chem Lett, 2020).
The source made the active and inactive calls. The calls are words filed in the database; no cut-off is given here.

Tested on: HCT-116
Experiment: Cytostatic activity against human HCT116 cells assessed as growth inhibition at 10 uM incubated for 48 hrs by sulforhodamine B assay relative to control
Assay type: functional
Details: not given
In the case of `O=C(/C=C/c1ccc(Cl)nc1)c1ccc(Cl)nc1`, the “growth inhibition (GI)” value is reported as “inactive”.

Same assay, conditions: HCT-116, 48 h, read-out: GI
Compound `O=C(/C=C/c1ccc(Cl)c(Cl)c1)c1ccc(Cl)c(Cl)c1` has an inhibition of growth at 10 µM of 6.1%. `O=C(c1cccs1)[C@H]1[C@H](c2cccs2)[C@@H](C(=O)c2cccs2)[C@](O)(c2cccs2)C[C@@H]1c1cccs1` showed an inhibition of growth at 10 µM of 6.1%. For `O=C(/C=C/c1ccc(Cl)cc1Cl)c1ccc(Cl)c(Cl)c1`, the inhibition of growth at 10 µM was 13.9%. For `O=C(c1cccs1)[C@H]1[C@H](c2ccc(Cl)cc2Cl)[C@@H](C(=O)c2cccs2)[C@](O)(c2cccs2)C[C@@H]1c1ccc(Cl)cc1Cl`, the inhibition of growth at 10 µM was 21.2%. Compound `O=C(/C=C/c1ccc(Cl)cc1Cl)c1ccc(Cl)nc1` has an inhibition of growth at 10 µM of 56.6%.

Tested on: K562
Experiment: Cytostatic activity against human K562 cells assessed as growth inhibition at 10 uM incubated for 48 hrs by sulforhodamine B assay relative to control
Assay type: functional
Details: K562, 48 h, read-out: GI
`O=C(/C=C/c1ccc(Cl)c(Cl)c1)c1ccc(Cl)c(Cl)c1` showed an inhibition of growth at 10 µM of 9.7%. For `O=C(/C=C/c1ccc(Cl)nc1)c1ccc(Cl)nc1`, the inhibition of growth at 10 µM was 6.1%. Work on `O=C(c1cccs1)[C@H]1[C@H](c2cccs2)[C@@H](C(=O)c2cccs2)[C@](O)(c2cccs2)C[C@@H]1c1cccs1` yielded an inhibition of growth at 10 µM of 14.5%. `O=C(/C=C/c1ccc(Cl)cc1Cl)c1ccc(Cl)c(Cl)c1` showed an inhibition of growth at 10 µM of 2.4%. For `O=C(c1cccs1)[C@H]1[C@H](c2ccc(Cl)cc2Cl)[C@@H](C(=O)c2cccs2)[C@](O)(c2cccs2)C[C@@H]1c1ccc(Cl)cc1Cl`, the inhibition of growth at 10 µM was 16.5%. `O=C(/C=C/c1ccc(Cl)cc1Cl)c1ccc(Cl)nc1` gave an inhibition of growth at 10 µM of 18.9%.

Tested on: LOX IMVI
Experiment: Cytostatic activity against human LOXIMVI cells assessed as growth inhibition at 10 uM incubated for 48 hrs by sulforhodamine B assay relative to control
Assay type: functional
Details: not given
In the case of `O=C(/C=C/c1ccc(Cl)c(Cl)c1)c1ccc(Cl)c(Cl)c1`, the “growth inhibition (GI)” value is reported as “inactive”. For `O=C(/C=C/c1ccc(Cl)nc1)c1ccc(Cl)nc1`, the “growth inhibition (GI)” value was “inactive”. For `O=C(/C=C/c1ccc(Cl)cc1Cl)c1ccc(Cl)c(Cl)c1`, the “growth inhibition (GI)” value was “inactive”.

Same assay, conditions: read-out: GI
With `O=C(c1cccs1)[C@H]1[C@H](c2cccs2)[C@@H](C(=O)c2cccs2)[C@](O)(c2cccs2)C[C@@H]1c1cccs1` the inhibition of growth at 10 µM was 7.8%. `O=C(c1cccs1)[C@H]1[C@H](c2ccc(Cl)cc2Cl)[C@@H](C(=O)c2cccs2)[C@](O)(c2cccs2)C[C@@H]1c1ccc(Cl)cc1Cl` gave an inhibition of growth at 10 µM of 3.1%. Work on `O=C(/C=C/c1ccc(Cl)cc1Cl)c1ccc(Cl)nc1` yielded an inhibition of growth at 10 µM of 65.1%.

Tested on: OVCAR-3
Experiment: Cytostatic activity against human OVCAR3 cells assessed as growth inhibition at 10 uM incubated for 48 hrs by sulforhodamine B assay relative to control
Assay type: functional
Details: not given
With `O=C(/C=C/c1ccc(Cl)c(Cl)c1)c1ccc(Cl)c(Cl)c1` the “growth inhibition (GI)” value was “inactive”. With `O=C(/C=C/c1ccc(Cl)nc1)c1ccc(Cl)nc1` the “growth inhibition (GI)” value was “inactive”. In the case of `O=C(c1cccs1)[C@H]1[C@H](c2cccs2)[C@@H](C(=O)c2cccs2)[C@](O)(c2cccs2)C[C@@H]1c1cccs1`, the “growth inhibition (GI)” value is reported as “inactive”. With `O=C(/C=C/c1ccc(Cl)cc1Cl)c1ccc(Cl)c(Cl)c1` the “growth inhibition (GI)” value was “inactive”. In the case of `O=C(/C=C/c1ccc(Cl)cc1Cl)c1ccc(Cl)nc1`, the “growth inhibition (GI)” value is reported as “inactive”.

Same assay, conditions: OVCAR-3, 48 h, read-out: GI
Work on `O=C(c1cccs1)[C@H]1[C@H](c2ccc(Cl)cc2Cl)[C@@H](C(=O)c2cccs2)[C@](O)(c2cccs2)C[C@@H]1c1ccc(Cl)cc1Cl` yielded an inhibition of growth at 10 µM of 11.5%.

Tested on: CCRF-CEM
Experiment: Cytostatic activity against human CCRF-CEM cells assessed as growth inhibition at 10 uM incubated for 48 hrs by sulforhodamine B assay relative to control
Assay type: functional
Details: not given
With `O=C(/C=C/c1ccc(Cl)cc1Cl)c1ccc(Cl)c(Cl)c1` the “growth inhibition (GI)” value was “inactive”.

Same assay, conditions: read-out: GI
With `O=C(/C=C/c1ccc(Cl)c(Cl)c1)c1ccc(Cl)c(Cl)c1` the inhibition of growth at 10 µM was 3.7%. `O=C(/C=C/c1ccc(Cl)nc1)c1ccc(Cl)nc1` gave an inhibition of growth at 10 µM of 3.1%. `O=C(c1cccs1)[C@H]1[C@H](c2cccs2)[C@@H](C(=O)c2cccs2)[C@](O)(c2cccs2)C[C@@H]1c1cccs1` gave an inhibition of growth at 10 µM of 5%. For `O=C(c1cccs1)[C@H]1[C@H](c2ccc(Cl)cc2Cl)[C@@H](C(=O)c2cccs2)[C@](O)(c2cccs2)C[C@@H]1c1ccc(Cl)cc1Cl`, the inhibition of growth at 10 µM was 22.3%. In the case of `O=C(/C=C/c1ccc(Cl)cc1Cl)c1ccc(Cl)nc1`, the inhibition of growth at 10 µM is reported as 6.5%.

Tested on: RPMI-8226
Experiment: Cytostatic activity against human RPMI8226 cells assessed as growth inhibition at 10 uM incubated for 48 hrs by sulforhodamine B assay relative to control
Assay type: functional
Details: RPMI-8226, 48 h, read-out: GI
For `O=C(/C=C/c1ccc(Cl)c(Cl)c1)c1ccc(Cl)c(Cl)c1`, the inhibition of growth at 10 µM was 7.2%. For `O=C(c1cccs1)[C@H]1[C@H](c2cccs2)[C@@H](C(=O)c2cccs2)[C@](O)(c2cccs2)C[C@@H]1c1cccs1`, the inhibition of growth at 10 µM was 17.7%. `O=C(/C=C/c1ccc(Cl)cc1Cl)c1ccc(Cl)c(Cl)c1` showed an inhibition of growth at 10 µM of 5.4%. `O=C(c1cccs1)[C@H]1[C@H](c2ccc(Cl)cc2Cl)[C@@H](C(=O)c2cccs2)[C@](O)(c2cccs2)C[C@@H]1c1ccc(Cl)cc1Cl` gave an inhibition of growth at 10 µM of 26.8%. Work on `O=C(/C=C/c1ccc(Cl)cc1Cl)c1ccc(Cl)nc1` yielded an inhibition of growth at 10 µM of 8.9%.

Tested on: SW-620
Experiment: Cytostatic activity against human SW620 cells assessed as growth inhibition at 10 uM incubated for 48 hrs by sulforhodamine B assay relative to control
Assay type: functional
Details: not given
With `O=C(/C=C/c1ccc(Cl)c(Cl)c1)c1ccc(Cl)c(Cl)c1` the “growth inhibition (GI)” value was “inactive”. In the case of `O=C(/C=C/c1ccc(Cl)nc1)c1ccc(Cl)nc1`, the “growth inhibition (GI)” value is reported as “inactive”. For `O=C(c1cccs1)[C@H]1[C@H](c2cccs2)[C@@H](C(=O)c2cccs2)[C@](O)(c2cccs2)C[C@@H]1c1cccs1`, the “growth inhibition (GI)” value was “inactive”. For `O=C(/C=C/c1ccc(Cl)cc1Cl)c1ccc(Cl)c(Cl)c1`, the “growth inhibition (GI)” value was “inactive”.

Same assay, conditions: SW-620, 48 h, read-out: GI
Work on `O=C(c1cccs1)[C@H]1[C@H](c2ccc(Cl)cc2Cl)[C@@H](C(=O)c2cccs2)[C@](O)(c2cccs2)C[C@@H]1c1ccc(Cl)cc1Cl` yielded an inhibition of growth at 10 µM of 12.7%. `O=C(/C=C/c1ccc(Cl)cc1Cl)c1ccc(Cl)nc1` showed an inhibition of growth at 10 µM of 7.9%.

Tested on: MCF7
Experiment: Cytostatic activity against human MCF7 cells assessed as growth inhibition at 10 uM incubated for 48 hrs by sulforhodamine B assay relative to control
Assay type: functional
Details: MCF7, 48 h, read-out: GI
In the case of `O=C(/C=C/c1ccc(Cl)c(Cl)c1)c1ccc(Cl)c(Cl)c1`, the inhibition of growth at 10 µM is reported as 14.2%. In the case of `O=C(/C=C/c1ccc(Cl)nc1)c1ccc(Cl)nc1`, the inhibition of growth at 10 µM is reported as 8.8%. `O=C(c1cccs1)[C@H]1[C@H](c2cccs2)[C@@H](C(=O)c2cccs2)[C@](O)(c2cccs2)C[C@@H]1c1cccs1` showed an inhibition of growth at 10 µM of 12.2%. For `O=C(/C=C/c1ccc(Cl)cc1Cl)c1ccc(Cl)c(Cl)c1`, the inhibition of growth at 10 µM was 28.3%. For `O=C(c1cccs1)[C@H]1[C@H](c2ccc(Cl)cc2Cl)[C@@H](C(=O)c2cccs2)[C@](O)(c2cccs2)C[C@@H]1c1ccc(Cl)cc1Cl`, the inhibition of growth at 10 µM was 18.3%. For `O=C(/C=C/c1ccc(Cl)cc1Cl)c1ccc(Cl)nc1`, the inhibition of growth at 10 µM was 63.4%.

Species: Homo sapiens
Experiment: Inhibition of C-terminal His6-tagged human recombinat FTase expressed in Escherichia coli BL21 RIL (DE3) cells using Dansyl-GCVLS peptide and farnesyl pyrophosphate as substrate at 100 uM measured for 15 mins by fluorimetric analysis relative to control
Details: not given
For `O=C(/C=C/c1ccc(Cl)c(Cl)c1)c1ccc(Cl)c(Cl)c1`, the inhibition was 60%. `O=C(/C=C/c1ccc(Cl)nc1)c1ccc(Cl)nc1` gave an inhibition of 26%. In the case of `O=C(c1cccs1)[C@H]1[C@H](c2cccs2)[C@@H](C(=O)c2cccs2)[C@](O)(c2cccs2)C[C@@H]1c1cccs1`, the inhibition is reported as 2%. `O=C(/C=C/c1ccc(Cl)cc1Cl)c1ccc(Cl)c(Cl)c1` showed an inhibition of 74%. Compound `O=C(c1cccs1)[C@H]1[C@H](c2ccc(Cl)cc2Cl)[C@@H](C(=O)c2cccs2)[C@](O)(c2cccs2)C[C@@H]1c1ccc(Cl)cc1Cl` has an inhibition of 11%. Compound `O=C(/C=C/c1ccc(Cl)cc1Cl)c1ccc(Cl)nc1` has an inhibition of 39%.

Tested on: SR
Experiment: Cytostatic activity against human SR cells assessed as growth inhibition at 10 uM incubated for 48 hrs by sulforhodamine B assay relative to control
Assay type: functional
Details: read-out: GI
Work on `O=C(/C=C/c1ccc(Cl)c(Cl)c1)c1ccc(Cl)c(Cl)c1` yielded an inhibition of growth at 10 µM of 6.1%. In the case of `O=C(c1cccs1)[C@H]1[C@H](c2cccs2)[C@@H](C(=O)c2cccs2)[C@](O)(c2cccs2)C[C@@H]1c1cccs1`, the inhibition of growth at 10 µM is reported as 7.9%. For `O=C(/C=C/c1ccc(Cl)cc1Cl)c1ccc(Cl)c(Cl)c1`, the inhibition of growth at 10 µM was 2.8%. In the case of `O=C(c1cccs1)[C@H]1[C@H](c2ccc(Cl)cc2Cl)[C@@H](C(=O)c2cccs2)[C@](O)(c2cccs2)C[C@@H]1c1ccc(Cl)cc1Cl`, the inhibition of growth at 10 µM is reported as 10%. Work on `O=C(/C=C/c1ccc(Cl)cc1Cl)c1ccc(Cl)nc1` yielded an inhibition of growth at 10 µM of 55.7%.

Tested on: not listed separately
Experiment: Inhibition of C-terminal His6-tagged human recombinat FTase expressed in Escherichia coli BL21 RIL (DE3) cells using Dansyl-GCVLS peptide and farnesyl pyrophosphate as substrate measured for 15 mins by fluorimetric analysis
Details: not given
For `O=C(/C=C/c1ccc(Cl)c(Cl)c1)c1ccc(Cl)c(Cl)c1`, the IC50 was 96.6 µM. `O=C(/C=C/c1ccc(Cl)cc1Cl)c1ccc(Cl)c(Cl)c1` gave an IC50 of 8.7 µM.

Tested on: KM12
Experiment: Cytostatic activity against human KM12 cells assessed as growth inhibition at 10 uM incubated for 48 hrs by sulforhodamine B assay relative to control
Assay type: functional
Details: not given
In the case of `O=C(/C=C/c1ccc(Cl)c(Cl)c1)c1ccc(Cl)c(Cl)c1`, the “growth inhibition (GI)” value is reported as “inactive”.

Same assay, conditions: KM12, 48 h, read-out: GI
For `O=C(/C=C/c1ccc(Cl)nc1)c1ccc(Cl)nc1`, the inhibition of growth at 10 µM was 1%. Work on `O=C(c1cccs1)[C@H]1[C@H](c2cccs2)[C@@H](C(=O)c2cccs2)[C@](O)(c2cccs2)C[C@@H]1c1cccs1` yielded an inhibition of growth at 10 µM of 3.4%. `O=C(/C=C/c1ccc(Cl)cc1Cl)c1ccc(Cl)c(Cl)c1` gave an inhibition of growth at 10 µM of 0.3%. Compound `O=C(c1cccs1)[C@H]1[C@H](c2ccc(Cl)cc2Cl)[C@@H](C(=O)c2cccs2)[C@](O)(c2cccs2)C[C@@H]1c1ccc(Cl)cc1Cl` has an inhibition of growth at 10 µM of 4.7%. Compound `O=C(/C=C/c1ccc(Cl)cc1Cl)c1ccc(Cl)nc1` has an inhibition of growth at 10 µM of 3.6%.

Tested on: NCI-H522
Experiment: Cytostatic activity against human NCI-H522 cells assessed as growth inhibition at 10 uM incubated for 48 hrs by sulforhodamine B assay relative to control
Assay type: functional
Details: NCI-H522, 48 h, read-out: GI
`O=C(/C=C/c1ccc(Cl)c(Cl)c1)c1ccc(Cl)c(Cl)c1` gave an inhibition of growth at 10 µM of 8.1%. With `O=C(/C=C/c1ccc(Cl)nc1)c1ccc(Cl)nc1` the inhibition of growth at 10 µM was 5.3%. Compound `O=C(c1cccs1)[C@H]1[C@H](c2cccs2)[C@@H](C(=O)c2cccs2)[C@](O)(c2cccs2)C[C@@H]1c1cccs1` has an inhibition of growth at 10 µM of 15.3%. In the case of `O=C(/C=C/c1ccc(Cl)cc1Cl)c1ccc(Cl)c(Cl)c1`, the inhibition of growth at 10 µM is reported as 11.4%. `O=C(c1cccs1)[C@H]1[C@H](c2ccc(Cl)cc2Cl)[C@@H](C(=O)c2cccs2)[C@](O)(c2cccs2)C[C@@H]1c1ccc(Cl)cc1Cl` showed an inhibition of growth at 10 µM of 18.5%. `O=C(/C=C/c1ccc(Cl)cc1Cl)c1ccc(Cl)nc1` showed an inhibition of growth at 10 µM of 24.2%.
